Numbers after ± are expanded uncertainties.
Assay: of the first substance listed, at infinite dilution; xn = mol fraction of the nth substance listed
Conditions: Liquid, vibrating tube densimetry, x1 = 0

OCCO [1,2-ethanediol] + O
Conditions | partial molar volume [m3/mol]
298.21 K, 640 kPa | 5.462e-05 ± 6e-08
298.21 K, 29790 kPa | 5.452e-05 ± 4e-08
298.23 K, 15130 kPa | 5.457e-05 ± 6e-08
318.17 K, 470 kPa | 5.548e-05 ± 6e-08
318.17 K, 14770 kPa | 5.53e-05 ± 6e-08
318.17 K, 30150 kPa | 5.516e-05 ± 6e-08
338.16 K, 440 kPa | 5.63e-05 ± 6e-08
338.16 K, 15150 kPa | 5.604e-05 ± 6e-08
338.16 K, 30360 kPa | 5.584e-05 ± 6e-08
373.12 K, 30010 kPa | 5.724e-05 ± 6e-08
373.14 K, 15170 kPa | 5.754e-05 ± 6e-08
373.15 K, 1960 kPa | 5.78e-05 ± 6e-08
408.15 K, 30070 kPa | 5.89e-05 ± 8e-08
408.16 K, 1760 kPa | 5.969e-05 ± 6e-08
408.16 K, 15000 kPa | 5.932e-05 ± 6e-08
441.98 K, 1950 kPa | 6.178e-05 ± 8e-08
442.03 K, 15670 kPa | 6.123e-05 ± 8e-08
442.04 K, 29810 kPa | 6.072e-05 ± 8e-08
473.15 K, 1900 kPa | 6.408e-05 ± 8e-08
473.15 K, 30250 kPa | 6.266e-05 ± 8e-08
473.16 K, 15750 kPa | 6.337e-05 ± 8e-08
498.15 K, 15970 kPa | 6.53e-05 ± 8e-08
498.15 K, 30110 kPa | 6.448e-05 ± 8e-08
498.16 K, 2930 kPa | 6.621e-05 ± 8e-08
523.16 K, 5030 kPa | 6.856e-05 ± 8e-08
523.16 K, 16160 kPa | 6.754e-05 ± 8e-08
523.16 K, 30260 kPa | 6.653e-05 ± 8e-08
548.17 K, 7030 kPa | 7.13e-05 ± 1e-07
548.18 K, 18020 kPa | 6.994e-05 ± 1e-07
548.18 K, 30300 kPa | 6.88e-05 ± 1e-07
573.14 K, 30090 kPa | 7.119e-05 ± 1e-07
573.18 K, 10040 kPa | 7.399e-05 ± 1e-07
573.19 K, 15080 kPa | 7.318e-05 ± 1e-07
573.19 K, 19910 kPa | 7.25e-05 ± 8e-08
573.23 K, 24730 kPa | 7.182e-05 ± 8e-08

CC(O)CO (stereo unspecified) [1,2-propanediol] + O
Conditions | partial molar volume [m3/mol]
298.21 K, 640 kPa | 7.123e-05 ± 6e-08
298.22 K, 15160 kPa | 7.119e-05 ± 6e-08
298.22 K, 29790 kPa | 7.112e-05 ± 6e-08
318.17 K, 500 kPa | 7.214e-05 ± 6e-08
318.17 K, 14770 kPa | 7.192e-05 ± 6e-08
318.17 K, 30140 kPa | 7.175e-05 ± 4e-08
338.16 K, 440 kPa | 7.321e-05 ± 4e-08
338.16 K, 15160 kPa | 7.291e-05 ± 6e-08
338.16 K, 30320 kPa | 7.263e-05 ± 4e-08
373.13 K, 15150 kPa | 7.509e-05 ± 6e-08
373.13 K, 29980 kPa | 7.46e-05 ± 4e-08
373.14 K, 2010 kPa | 7.548e-05 ± 6e-08
408.15 K, 29980 kPa | 7.718e-05 ± 4e-08
408.16 K, 1760 kPa | 7.843e-05 ± 4e-08
408.16 K, 15000 kPa | 7.781e-05 ± 4e-08
441.99 K, 1840 kPa | 8.185e-05 ± 4e-08
442.03 K, 15650 kPa | 8.093e-05 ± 6e-08
442.03 K, 29800 kPa | 8.01e-05 ± 6e-08
473.15 K, 1890 kPa | 8.576e-05 ± 6e-08
473.15 K, 15760 kPa | 8.445e-05 ± 6e-08
473.16 K, 30230 kPa | 8.325e-05 ± 4e-08
498.15 K, 2930 kPa | 8.947e-05 ± 6e-08
498.15 K, 15970 kPa | 8.777e-05 ± 8e-08
498.15 K, 30110 kPa | 8.627e-05 ± 8e-08
523.16 K, 4980 kPa | 9.38e-05 ± 8e-08
523.16 K, 16130 kPa | 9.172e-05 ± 6e-08
523.16 K, 30320 kPa | 8.966e-05 ± 6e-08
548.17 K, 7020 kPa | 9.914e-05 ± 8e-08
548.18 K, 18020 kPa | 9.621e-05 ± 8e-08
548.18 K, 30440 kPa | 9.367e-05 ± 1e-07
573.14 K, 30360 kPa | 9.86e-05 ± 1e-07
573.18 K, 10120 kPa | 0.000106 ± 8e-08
573.19 K, 19990 kPa | 0.0001018 ± 8e-08

OCC(O)CO [glycerol] + O
Conditions | partial molar volume [m3/mol]
298.21 K, 640 kPa | 7.093e-05 ± 8e-08
298.21 K, 29800 kPa | 7.103e-05 ± 8e-08
298.22 K, 15170 kPa | 7.097e-05 ± 8e-08
318.17 K, 470 kPa | 7.205e-05 ± 8e-08
318.17 K, 14770 kPa | 7.195e-05 ± 8e-08
318.17 K, 30260 kPa | 7.194e-05 ± 8e-08
338.16 K, 440 kPa | 7.304e-05 ± 8e-08
338.16 K, 15150 kPa | 7.288e-05 ± 8e-08
338.16 K, 30360 kPa | 7.277e-05 ± 8e-08
373.13 K, 15180 kPa | 7.444e-05 ± 1e-07
373.13 K, 30110 kPa | 7.428e-05 ± 8e-08
373.14 K, 1980 kPa | 7.463e-05 ± 8e-08
408.15 K, 30120 kPa | 7.586e-05 ± 1e-07
408.16 K, 1830 kPa | 7.644e-05 ± 1e-07
408.16 K, 14970 kPa | 7.616e-05 ± 1e-07
441.99 K, 1850 kPa | 7.825e-05 ± 1e-07
442.03 K, 15670 kPa | 7.795e-05 ± 1.2e-07
442.13 K, 29820 kPa | 7.764e-05 ± 1e-07
473.15 K, 1960 kPa | 8e-05 ± 1.2e-07
473.15 K, 15740 kPa | 7.962e-05 ± 1e-07
473.16 K, 30290 kPa | 7.92e-05 ± 1e-07
498.15 K, 3000 kPa | 8.129e-05 ± 1.2e-07
498.15 K, 30210 kPa | 8.047e-05 ± 1.2e-07
498.16 K, 15930 kPa | 8.087e-05 ± 1.2e-07
523.15 K, 16150 kPa | 8.212e-05 ± 1.4e-07
523.16 K, 5030 kPa | 8.238e-05 ± 1.6e-07
523.16 K, 30280 kPa | 8.184e-05 ± 1.4e-07
548.17 K, 7070 kPa | 8.292e-05 ± 1.6e-07
548.18 K, 18040 kPa | 8.309e-05 ± 1.6e-07
548.18 K, 30570 kPa | 8.347e-05 ± 1.4e-07
573.14 K, 30040 kPa | 8.344e-05 ± 1.8e-07
573.18 K, 10150 kPa | 8.171e-05 ± 1.8e-07
573.19 K, 15080 kPa | 8.249e-05 ± 1.8e-07
573.19 K, 19940 kPa | 8.3e-05 ± 1.6e-07
573.25 K, 24690 kPa | 8.32e-05 ± 1.8e-07

OCCCO [propan-1,3-diol] + O
Conditions | partial molar volume [m3/mol]
298.22 K, 640 kPa | 7.193e-05 ± 4e-08
298.22 K, 29780 kPa | 7.167e-05 ± 4e-08
298.23 K, 15160 kPa | 7.183e-05 ± 4e-08
318.17 K, 480 kPa | 7.262e-05 ± 4e-08
318.17 K, 14770 kPa | 7.234e-05 ± 4e-08
318.17 K, 30240 kPa | 7.212e-05 ± 4e-08
338.16 K, 440 kPa | 7.345e-05 ± 4e-08
338.16 K, 15130 kPa | 7.315e-05 ± 4e-08
338.16 K, 30290 kPa | 7.289e-05 ± 4e-08
373.13 K, 30110 kPa | 7.451e-05 ± 4e-08
373.14 K, 15170 kPa | 7.496e-05 ± 4e-08
373.16 K, 1960 kPa | 7.536e-05 ± 4e-08
408.15 K, 14940 kPa | 7.727e-05 ± 4e-08
408.15 K, 30010 kPa | 7.668e-05 ± 4e-08
408.16 K, 1870 kPa | 7.783e-05 ± 4e-08
442.02 K, 1820 kPa | 8.074e-05 ± 4e-08
442.03 K, 15700 kPa | 7.994e-05 ± 4e-08
442.08 K, 29800 kPa | 7.924e-05 ± 4e-08
473.15 K, 1940 kPa | 8.402e-05 ± 4e-08
473.16 K, 15710 kPa | 8.291e-05 ± 4e-08
473.16 K, 30280 kPa | 8.188e-05 ± 4e-08
498.15 K, 15940 kPa | 8.561e-05 ± 4e-08
498.16 K, 2960 kPa | 8.701e-05 ± 4e-08
498.16 K, 30110 kPa | 8.438e-05 ± 4e-08
523.16 K, 5030 kPa | 9.047e-05 ± 4e-08
523.16 K, 16160 kPa | 8.885e-05 ± 4e-08
523.16 K, 30260 kPa | 8.723e-05 ± 4e-08
548.18 K, 7070 kPa | 9.443e-05 ± 4e-08
548.18 K, 18040 kPa | 9.233e-05 ± 4e-08
548.18 K, 30580 kPa | 9.05e-05 ± 4e-08
573.17 K, 30240 kPa | 9.414e-05 ± 4e-08
573.18 K, 10100 kPa | 9.925e-05 ± 4e-08
573.19 K, 19920 kPa | 9.645e-05 ± 4e-08

Source: the NIST ThermoML archive (doi:10.1016/j.jct.2005.08.015)
